The values that follow come from ChEMBL document CHEMBL1201862, “PubChem BioAssay data set” (2004).

Each structure is given as a SMILES string.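 Protocol summary: plate cells (96-well), add compound at 5 concentrations, incubate 48 h, interpolate endpoints linearly. At the GI50, growth is halved.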 Calls of active or inactive are those of the source. No stated cut-off is given here; in the data, active = GI50 up to about 1.1 µM and inactive = higher.

Some test systems named below: DLD-1; DMS-273; HOP-18; KM-20L2; LXFL 529; M19-MEL; XF498; DMS-114; RXF 631.
Holding throughout (test): growth of human tumour cells (NCI), 48 h

Take `N#C/C(=C\c1ccc(O)c(O)c1)C(=O)NC1CCC(CC2CCC(NC(=O)/C(C#N)=C/c3ccc(O)c(O)c3)CC2)CC1` (stereo unspecified): the GI50 is 0.415 µM (active) in the experiment with DLD-1; 0.222 µM (active) with DMS-273; 2.38 µM (inactive) in the experiment with HOP-18; 1.78 µM (inactive) in the experiment with KM-20L2; 0.433 µM (active) in the experiment with LXFL 529; 0.443 µM (active) in the experiment on M19-MEL. Further, the GI50 in the experiment on XF498 is 2.07 µM (inactive).

As to `O=C(CCc1cc(-c2ccccc2)nc(S)n1)N(Cc1ccccc1)Cc1ccccc1`, the GI50 in the experiment with DLD-1, in the experiment on DMS-114, with DMS-273, in the experiment with HOP-18, with KM-20L2 and in the experiment with LXFL 529 was > 100 µM (inactive) throughout. Also, the GI50 in the experiment on M19-MEL and in the experiment with XF498 was > 100 µM (inactive) throughout.

`O/N=C\C(=N/O)Nc1ccc(Cc2ccc(NC(/C=N\O)=N/O)cc2)cc1`: the GI50 with DLD-1 is 23.9 µM (inactive); in the experiment with DMS-114 it was 69.3 µM (inactive); with DMS-273, 43.9 µM (inactive); with HOP-18 it was 37.9 µM (inactive); in the experiment with KM-20L2, 44.3 µM (inactive); in the experiment on LXFL 529, 39.4 µM (inactive). The results for the GI50 in the experiment on M19-MEL and in the experiment with XF498 were 47 µM (inactive) and 71.3 µM (inactive), respectively.

Turning to `COC(=O)/C(=N/Nc1cccc(Cl)c1)C(C(=O)C(=O)Nc1cccc(Cl)c1C)c1nc2ccccc2nc1C` (stereo unspecified), the GI50 in the experiment on DLD-1 is 34.5 µM (inactive); with DMS-114, 45 µM (inactive); with KM-20L2 it was 32 µM (inactive); in the experiment on M19-MEL, 54 µM (inactive).

In the case of `COC1CC(OS(=O)(=O)c2ccc([N+](=O)[O-])cc2)C(OC(=O)c2ccccc2)C(C)O1` (stereo unspecified), the GI50 in the experiment on DLD-1, in the experiment with DMS-273, with HOP-18, with KM-20L2, in the experiment on LXFL 529 and in the experiment with M19-MEL was > 100 µM (inactive) throughout. Moreover, the GI50 in the experiment on RXF 631 was 58.5 µM (inactive); in the experiment on XF498 it was 31.8 µM (inactive).

For `NCCn1ccc(NC(c2ccccc2)(c2ccccc2)c2ccccc2)nc1=O`, the GI50 with DLD-1 was 63.1 µM (inactive); in the experiment with DMS-114, 18.6 µM (inactive); in the experiment with HOP-18, > 100 µM (inactive); in the experiment on KM-20L2, 15.7 µM (inactive); in the experiment on LXFL 529, 16.7 µM (inactive); with M19-MEL it was 20.9 µM (inactive). In the experiment on XF498, the GI50 was 13.4 µM (inactive).

As to `CCCOP1(=O)C=C(O)C(Cl)=C(C)C1` (stereo unspecified), the GI50 in the experiment on DLD-1, in the experiment on DMS-273, in the experiment on KM-20L2, in the experiment on LXFL 529, in the experiment on M19-MEL and with XF498 was > 100 µM (inactive) in each case.

For the molecule `C=CC(=O)C#CC#CC/C=C\CCCCCCC`, the GI50 in the experiment with DLD-1 was 8.79 µM (inactive); with DMS-114 it was 10.3 µM (inactive); with DMS-273, > 20.6 µM (inactive); with KM-20L2 it was > 20.6 µM (inactive); in the experiment on LXFL 529, 7.74 µM (inactive); with M19-MEL, > 20.6 µM (inactive).

In the case of `CCOC(=O)CC1COc2ccc3c(c21)OCO3` (stereo unspecified), the GI50 with DLD-1, in the experiment on DMS-114, in the experiment on DMS-273, with HOP-18, in the experiment with KM-20L2 and with LXFL 529 was > 100 µM (inactive) throughout. The GI50 in the experiment on M19-MEL and with XF498 was > 100 µM (inactive) each time.

With `COc1ccc(/C=N/NC(=O)CSc2nc(-c3ccccc3)c(-c3ccccc3)[nH]2)cc1OC`, the GI50 in the experiment on DLD-1 is 42.6 µM (inactive); with DMS-114, 46.1 µM (inactive); with DMS-273 it was 20.4 µM (inactive); in the experiment with KM-20L2 it was 19.1 µM (inactive); with LXFL 529, 22.1 µM (inactive); in the experiment on M19-MEL, 18.4 µM (inactive).

For `O=C1CCC(=O)C(C(=O)CCC(=O)Nc2cccc(Cl)c2)C1` (stereo unspecified), the GI50 in the experiment on DLD-1 is > 100 µM (inactive); in the experiment with HOP-18, > 100 µM (inactive); with KM-20L2 it was 71 µM (inactive); in the experiment on LXFL 529 it was > 100 µM (inactive); in the experiment on M19-MEL it was > 100 µM (inactive); in the experiment on XF498, > 100 µM (inactive).

With `COC(=O)CSc1nnc(-c2ccccc2)[nH]1`, the GI50 in the experiment with DLD-1, in the experiment with DMS-114, with DMS-273, in the experiment on HOP-18, in the experiment on KM-20L2 and with LXFL 529 was > 100 µM (inactive) in each case. For the same molecule, the GI50 in the experiment with M19-MEL is > 100 µM (inactive).

On to `COc1ccc(C2S/C(=C\c3ccccc3O)C(=O)N2NC(=O)Cc2ccccc2)cc1` (stereo unspecified), for which the GI50 is > 100 µM (inactive) in the experiment on DLD-1; 74.5 µM (inactive) in the experiment on DMS-114; > 100 µM (inactive) in the experiment on DMS-273; > 100 µM (inactive) with HOP-18; 93.1 µM (inactive) in the experiment on LXFL 529; > 100 µM (inactive) with M19-MEL.

As to `COC(=O)C(CC(=O)Nc1ccc(Cl)c(Cl)c1)C(=O)C(=O)NC1C2CC3CC(C2)CC1C3` (stereo unspecified), the GI50 was > 100 µM (inactive) in the experiment on DMS-114; > 100 µM (inactive) with DMS-273; 78.3 µM (inactive) with HOP-18; > 100 µM (inactive) with KM-20L2; > 100 µM (inactive) in the experiment with LXFL 529; > 100 µM (inactive) in the experiment with M19-MEL.

As to `COc1ccc(C2NC3=C(CCCC3)N2)cc1`, the GI50 with DLD-1 was 88.1 µM (inactive); in the experiment with DMS-114, 75.5 µM (inactive); with DMS-273, 54.2 µM (inactive); with KM-20L2, 31.3 µM (inactive); in the experiment on LXFL 529 it was 59.8 µM (inactive); with M19-MEL it was 41.6 µM (inactive). Further, the GI50 in the experiment with XF498 was 59 µM (inactive).

As for `Cc1c(/C=N/N=C/c2[nH]c(C(=O)OC(C)(C)C)c(C)c2C)[nH]c(C(=O)OC(C)(C)C)c1C`, the GI50 in the experiment on DLD-1, with DMS-114, with DMS-273, in the experiment on HOP-18, with KM-20L2 and in the experiment on LXFL 529 was > 100 µM (inactive) each time. For the same molecule, the GI50 in the experiment on M19-MEL is > 100 µM (inactive).

As for `O=C1C(=O)N(c2ccc(Cl)cc2)C(=O)/C(=N/c2cccc3c(=O)[nH][nH]c(=O)c23)C1c1nc2ccccc2o1` (stereo unspecified), the GI50 in the experiment on DLD-1, in the experiment with DMS-273, with HOP-18, in the experiment with KM-20L2, in the experiment with LXFL 529 and with M19-MEL was > 100 µM (inactive) throughout. Also, the GI50 in the experiment on RXF 631 is > 100 µM (inactive).

For the molecule `CCN(CC)c1ccc(/C=C2/C[N+](C)(C)C/C(=C/c3ccc(N(CC)CC)cc3)C2=O)cc1`, the GI50 is 9.59 µM (inactive) in the experiment with DLD-1; 1.41 µM (inactive) with DMS-114; 6.61 µM (inactive) in the experiment with HOP-18; 2.59 µM (inactive) in the experiment on KM-20L2; 1.1 µM (active) with LXFL 529; 1.45 µM (inactive) with M19-MEL. Moreover, the GI50 with RXF 631 was > 30.3 µM (inactive); in the experiment with XF498, 2.48 µM (inactive).

Take `CC1OC(OCC2OC(Oc3c(-c4ccc(O)cc4)oc4cc(O)cc(O)c4c3=O)C(OC3OCC(O)(CO)C3O)C(O)C2O)C(O)C(O)C1O` (stereo unspecified): the GI50 is 36.8 µM (inactive) in the experiment on DLD-1; 32 µM (inactive) in the experiment with DMS-114; 49.2 µM (inactive) with DMS-273; > 100 µM (inactive) in the experiment with HOP-18; > 100 µM (inactive) in the experiment with KM-20L2; > 100 µM (inactive) in the experiment on LXFL 529. The GI50 in the experiment with M19-MEL was 21.7 µM (inactive); in the experiment with RXF 631 it was > 100 µM (inactive).

Consider `CCOC(=O)c1oc2c(OC)ccc3c2c1CCC3`, for which the GI50 in the experiment on DLD-1, in the experiment on DMS-114, with DMS-273, in the experiment with KM-20L2, in the experiment with LXFL 529 and with M19-MEL was > 100 µM (inactive) throughout. The GI50 with RXF 631 and in the experiment on XF498 was > 100 µM (inactive) each time.

In the case of `CCOC(=O)C1S/C(=N\c2ccccc2)N=C1C` (stereo unspecified), the GI50 in the experiment with DLD-1 was 49.9 µM (inactive); in the experiment on DMS-114, 59 µM (inactive); in the experiment on HOP-18, > 100 µM (inactive); with KM-20L2, 55.7 µM (inactive); in the experiment with LXFL 529 it was 65.8 µM (inactive); with M19-MEL it was > 100 µM (inactive). Moreover, the GI50 with RXF 631 and in the experiment on XF498 was > 100 µM (inactive) throughout.

For `CC[C@]12C=CCN3CCC4(c5cc([C@@]6(C(=O)OC)CC7CN(CCc8c6[nH]c6ccccc86)CC6CCCCC67)c(OC)cc5N(C)C4[C@](O)(C(=O)OC)C1OC(C)=O)[C@@H]32` (stereo partly specified), the GI50 is 0.0269 µM (active) with DLD-1; < 0.01 µM (active) with DMS-114; < 0.01 µM (active) with DMS-273; < 0.01 µM (active) in the experiment on KM-20L2; < 0.01 µM (active) in the experiment on LXFL 529; < 0.01 µM (active) in the experiment on M19-MEL. Also, in the experiment on XF498, the GI50 is 0.0469 µM (active).

Regarding `CN(C)CCNc1ccc2nnn3c4ccccc4c(=O)c1c23`, the GI50 in the experiment with DLD-1 was 3.61 µM (inactive); in the experiment on DMS-114 it was 4.07 µM (inactive); with DMS-273, 3.2 µM (inactive); with KM-20L2, 2.68 µM (inactive); in the experiment with LXFL 529 it was 3.6 µM (inactive); with M19-MEL it was 2.86 µM (inactive). Moreover, the results for the GI50 with RXF 631 and in the experiment with XF498 were 1.81 µM (inactive) and 6.38 µM (inactive), respectively.

For the molecule `NC(C(=O)O)c1ccc(C(=O)O)cc1` (stereo unspecified), the GI50 in the experiment with DLD-1, with DMS-114, in the experiment with KM-20L2, in the experiment on LXFL 529, in the experiment on M19-MEL and in the experiment with RXF 631 was > 100 µM (inactive) throughout. For the same molecule, the GI50 in the experiment on XF498 is > 100 µM (inactive).

In the case of `C/C=C/C1=C(Cl)C(=O)[C@@H](Cl)[C@@]1(O)C(=O)OC` [(+)-CRYPTOSPORIPSIN], the GI50 was 2.28 µM (inactive) in the experiment with DLD-1; 3.54 µM (inactive) in the experiment on DMS-273; 4.09 µM (inactive) with HOP-18; 4.68 µM (inactive) with KM-20L2; 2.64 µM (inactive) with LXFL 529; 2.55 µM (inactive) in the experiment on M19-MEL. The values for the GI50 in the experiment on RXF 631 and in the experiment on XF498 were 10.5 µM (inactive) and 2.82 µM (inactive), respectively.
